Measurements from PMC7305224, “Mutually stabilizing interactions between proto-peptides and RNA” (Nature Communications, 2020).

Key:
Format in all cases: binding
[1] = tested on: RNA duplex 2 (5′-rArArArArUrUrUrArUrArUrUrArUrUrA-3′ and 5′-rUrArArUrArArUrArUrArArArUrUrUrU-3′); assay: RNA thermal denaturation (Tm) by UV hyperchromicity, RNA duplex 2
Method: (§1) Prior to Tm analyses, RNA samples were annealed in the appropriate buffer by heating to 75 °C and slowly cooling to room temperature. Depsipeptide/peptide was added to the annealed RNA and incubated at 4 °C for 20 min prior to carrying out the analysis. For analyses involving dry-down reaction mixtures, the Tm was determined by monitoring fluorescence increase upon melting of a fluorophore/quencher-labeled RNA duplex (5′-rCrGrArUrUrUrArGrCrG-/3IABkFQ/-3′ and 3′-rGrCrUrArArArUrCrGrC-FAM-5′) using a BioRad CFX Connect rtPCR instrument with a heating ramp of 1 °C/min and 20 μL final sample volumes. For analyses involving pure, synthetic compounds, the Tm of the RNA was determined by monitoring UV hyperchromicity at 260 nm using a Varian Cary Bio-100 spectrophotometer, with a heating ramp of 1 °C/min and 0.5- or 1-cm pathlength cells. The following RNA sequences were used: RNA duplex 1 = 5′-rCrGrCrUrArArArUrCrG-3′ and 5′-rCrGrArUrUrUrArGrCrG-3′; RNA duplex 2 = 5′-rArArArArUrUrUrArUrArUrUrArUrUrA-3′ and 5′-rUrArArUrArArUrArUrArArArUrUrUrU-3′; RNA duplex 3 = 5′-rArArCrGrUrArUrArCrGrUrU-3′ (palindromic); and H26a RNA = 5′-rArUrGrArGrUrArArCrCrGrUrArArGrGrUrGrArArArUrU-3′. RNA was present in each assay at a final concentration of 2.5 μM of the folded structure (2.5 μM each strand for duplex 1 and duplex 2, 5.0 μM palindromic strand for duplex 3, 2.5 μM strand for H26a RNA). Tm values were determined by nonlinear fitting of the melting curves using GraphPad Prism 8.2.1 for duplex 1 and H26a, or by finding the maximum of the first derivative of the curve using the Varian Cary Bio-100 software for duplex 2 and duplex 3. Both methods of determining the Tm gave similar values for a given denaturation curve.

[2] = tested on: H26a RNA (5′-rArUrGrArGrUrArArCrCrGrUrArArGrGrUrGrArArArUrU-3′); assay: RNA thermal denaturation (Tm) by UV hyperchromicity, H26a RNA hairpin
Method: as §1

[3] = tested on: RNA duplex 3 (5′-rArArCrGrUrArUrArCrGrUrU-3′, palindromic); assay: RNA thermal denaturation (Tm) by UV hyperchromicity, RNA duplex 3
Method: as §1

Aba-Gly-Ala-Dab-Lys-Ala-Dab-Lys-lac-Dab-Lys-Ala-Dab-Lys-NH2 [compound 9]
RNA duplex 2 Tm ([1]; observed Tm with peptide/depsipeptide 100 µM, pH 7.0, RNA alone 33.7 ± 0.7, mean ± SD of 2-4 independent experiments): 41.8 ± 0.6 °C | RNA duplex 2 ΔTm ([1]; peptide/depsipeptide 100 μM, RNA 2.5 μM each strand, pH 7.0, 10 mM phosphate, 100 mM NaCl, mean of 2–4 replicates): 8.2 °C | H26a RNA Tm ([2]; observed Tm with peptide/depsipeptide 100 µM, pH 7.0, RNA alone 53.4 ± 0.5, mean ± SD of 2-4 independent experiments): 64.9 ± 0.7 °C | H26a RNA ΔTm ([2]; peptide/depsipeptide 100 μM, RNA 2.5 μM strand, pH 7.0, 10 mM phosphate, 100 mM NaCl, mean of 2–4 replicates): 11.5 °C | RNA duplex 3 Tm ([3]; observed Tm with peptide/depsipeptide 100 µM, pH 7.0, RNA alone 48.6 ± 0.7, mean ± SD of 2-4 independent experiments): 58.5 ± 0.7 °C | RNA duplex 3 ΔTm ([3]; peptide/depsipeptide 100 μM, 5.0 μM palindromic strand, pH 7.0, 10 mM phosphate, 100 mM NaCl, mean of 2–4 replicates): 9.9 °C
